# Measurements taken from patent US9994555B2, “Chromenone inhibitors of monocarboxylate transporters” (THE SCRIPPS RESEARCH INSTITUTE, priority 2015, dated 2018).
# Test system: Raji (Burkitt's) lymphoma cells
# Assay: MTT assay for 4-day viability of Raji (Burkitt's) lymphoma cells
# Type: cell-based
# Conditions: Homo sapiens, 96 h, Raji (Burkitt's) lymphoma cells highly expressing MCT1, estimated EC50 given as bin, read-out: approximate potency (EC50)
# Source text: Specific Examples of compounds of the invention, with estimated EC50 values determined using an MTT assay for 4-day viability of Raji (Burkitt's) lymphoma cells, a cell line known to highly express MCT1 and to be sensitive to small molecule MCT inhibitors,^4 are shown in Table 8. Assay protocols follow those described in the literature.^4 Other assays that are not described here but that are standard in the field, such as an assay for competitive inhibition of transport of radiolabeled lactic acid, an MCT substrate, may also be useful in establishing mechanism of action of these compounds.
row,SMILES,EC50
1,"Cc1cc(=O)c2c(OCC(O)CO)cc(Oc3ccnc4ccccc34)cc2o1 (centres unmarked) [Example 4, 5-(2,3-dihydroxypropoxy)-2-methyl-7-(quinolin-4-yloxy)-4H-chromen-4-one]",≥ 10 µM
2,"CC(C)c1cc(=O)c2c(OCc3ccccc3CO)cc(OCc3cccnc3)cc2o1 [Example 14, 5-((2-(hydroxymethyl)benzyl)oxy)-2-isopropyl-7-(pyridin-3-ylmethoxy)-4H-chromen-4-one]",≤ 0.1 µM
3,"O=c1cc(-c2ccccc2)oc2cc(OCc3cccc4ccccc34)cc(OCCCO)c12 [Example 28, 5-(3-hydroxypropoxy)-7-(naphthalen-1-ylmethoxy)-2-phenyl-4H-chromen-4-one]",1 to 10 µM
4,"CC(C)c1cc(=O)c2c(OCc3ccccc3CO)cc(OCc3cccc(C(F)(F)F)c3)cc2o1 [Example 12, 5-((2-(hydroxymethyl)benzyl)oxy)-2-isopropyl-7-((3-(trifluoromethyl)benzyl)oxy)-4H-chromen-4-one]",≤ 0.1 µM
5,"CC(C)c1cc(=O)c2c(OCc3ccccc3CO)cc(OCc3cncs3)cc2o1 [Example 18, 5-((2-(hydroxymethyl)benzyl)oxy)-2-isopropyl-7-(thiazol-5-ylmethoxy)-4H-chromen-4-one]",0.1 to 1 µM
6,"CC(C)c1cc(=O)c2c(OCc3ccccc3CO)cc(Oc3ncccc3C(F)(F)F)cc2o1 [Example 11, 5-((2-(hydroxymethyl)benzyl)oxy)-2-isopropyl-7-((3-(trifluoromethyl)pyridin-2-yl)oxy)-4H-chromen-4-one]",≤ 0.1 µM
7,"CC(C)c1cc(=O)c2c(-c3cccc(CO)c3F)cc(OCc3cccc4ccccc34)cc2o1 [Example 41, 5-(2-fluoro-3-(hydroxymethyl)phenyl)-2-isopropyl-7-(naphthalen-1-ylmethoxy)-4H-chromen-4-one]",≥ 10 µM
8,"CC(C)c1cc(=O)c2c(OCc3ccccc3CO)cc(OCc3cncnc3)cc2o1 [Example 33, 5-((2-(hydroxymethyl)benzyl)oxy)-2-isopropyl-7-(pyrimidin-5-ylmethoxy)-4H-chromen-4-one]",0.1 to 1 µM
9,"CC(C)c1cc(=O)c2c(-c3cccc(CO)c3)cc(OCc3cccc4ccccc34)cc2o1 [Example 43, 5-(3-(hydroxymethyl)phenyl)-2-isopropyl-7-(naphthalen-1-ylmethoxy)-4H-chromen-4-one]",0.1 to 1 µM
10,"Cc1cc(=O)c2c(OCCCCO)cc(OCc3cccc4ccccc34)cc2o1 [Example 3, 5-(4-hydroxybutoxy)-2-methyl-7-(naphthalen-1-ylmethoxy)-4H-chromen-4-one]",1 to 10 µM
11,"CC(C)c1cc(=O)c2c(OCc3ccccc3CO)cc(OCc3cnc(Cl)c4ccccc34)cc2o1 [Example 25, 7-((1-chloroisoquinolin-4-yl)methoxy)-5-((2-(hydroxymethyl)benzyl)oxy)-2-isopropyl-4H-chromen-4-one]",≤ 0.1 µM
12,"CC(C)c1cc(=O)c2c(OCc3ccccc3CO)cc(OCc3ccncc3)cc2o1 [Example 15, 5-((2-(hydroxymethyl)benzyl)oxy)-2-isopropyl-7-(pyridin-4-ylmethoxy)-4H-chromen-4-one]",0.1 to 1 µM
13,"CC(C)c1cc(=O)c2c(OCc3ccccc3CO)cc(OCc3cccnc3C(F)(F)F)cc2o1 [Example 10, 5-((2-(hydroxymethyl)benzyl)oxy)-2-isopropyl-7-((2-(trifluoromethyl)pyridin-3-yl)methoxy)-4H-chromen-4-one]",≤ 0.1 µM
14,"CC(C)c1cc(=O)c2c(CCCCO)cc(OCc3cccc4ccccc34)cc2o1 [Example 36, 5-(4-hydroxybutyl)-2-isopropyl-7-(naphthalen-1-ylmethoxy)-4H-chromen-4-one]",1 to 10 µM
15,"CC(C)c1cc(=O)c2c(-c3cccc(CO)c3)cc(Oc3ccnc4ccccc34)cc2o1 [Example 42, 5-(3-(hydroxymethyl)phenyl)-2-isopropyl-7-(quinolin-4-yloxy)-4H-chromen-4-one]",0.1 to 1 µM
16,"Cc1cc(=O)c2c(OCCCO)cc(Oc3ccnc4ccccc34)cc2o1 [Example 1, 5-(3-hydroxypropoxy)-2-methyl-7-(quinolin-4-yloxy)-4H-chromen-4-one]",1 to 10 µM
17,"O=c1cc(-c2ccccc2)oc2cc(Oc3ccnc4ccccc34)cc(OCC(O)CO)c12 (centres unmarked) [Example 27, 5-(2,3-dihydroxypropoxy)-2-phenyl-7-(quinolin-4-yloxy)-4H-chromen-4-one]",≥ 10 µM
18,"CC(C)c1cc(=O)c2c(OCc3ccccc3CO)cc(OCc3cccc4ccccc34)cc2o1 [Example 8, 5-((2-(hydroxymethyl)benzyl)oxy)-2-isopropyl-7-(naphthalen-1-ylmethoxy)-4H-chromen-4-one]",≤ 0.1 µM
19,"CC(C)c1cc(=O)c2c(OCc3ccccc3CO)cc(OCc3ccccn3)cc2o1 [Example 13, 5-((2-(hydroxymethyl)benzyl)oxy)-2-isopropyl-7-(pyridin-2-ylmethoxy)-4H-chromen-4-one]",≤ 0.1 µM
20,"CC(C)c1cc(=O)c2c(NCCCCCO)cc(OCc3cccc4ccccc34)cc2o1 [Example 47, 5-((5-hydroxypentyl)amino)-2-isopropyl-7-(naphthalen-1-ylmethoxy)-4H-chromen-4-one]",≥ 10 µM
21,"CC(C)c1cc(=O)c2c(OCc3ccccc3CO)cc(OCc3ccnc4ccccc34)cc2o1 [Example 24, 5-((2-(hydroxymethyl)benzyl)oxy)-2-isopropyl-7-(quinolin-4-ylmethoxy)-4H-chromen-4-one]",≤ 0.1 µM
22,"Cc1cc(=O)c2c(OCCCO)cc(OCc3cccc4ccccc34)cc2o1 [Example 2, 5-(3-hydroxypropoxy)-2-methyl-7-(naphthalen-1-ylmethoxy)-4H-chromen-4-one]",1 to 10 µM
23,"Cc1cc(=O)c2c(OCc3ccccc3CO)cc(Oc3ccnc4ccccc34)cc2o1 [Example 31, 5-((2-(hydroxymethyl)benzyl)oxy)-2-methyl-7-(quinolin-4-yloxy)-4H-chromen-4-one]",0.1 to 1 µM
24,"CC(C)c1cc(=O)c2c(-c3cc(CO)ccc3Cl)cc(OCc3cccc4ccccc34)cc2o1 [Example 39, 5-(2-chloro-5-(hydroxymethyl)phenyl)-2-isopropyl-7-(naphthalen-1-ylmethoxy)-4H-chromen-4-one]",1 to 10 µM
25,"CC(C)c1cc(=O)c2c(OCCCCO)cc(COc3cccc4ccccc34)cc2o1 [Example 35, 5-(4-hydroxybutoxy)-2-isopropyl-7-((naphthalen-1-yloxy)methyl)-4H-chromen-4-one]",1 to 10 µM
26,"O=c1cc(-c2ccccc2)oc2cc(Oc3ccnc4ccccc34)cc(OCCCO)c12 [Example 26, 5-(3-hydroxypropoxy)-2-phenyl-7-(quinolin-4-yloxy)-4H-chromen-4-one]",1 to 10 µM
27,"CC(C)c1cc(=O)c2c(-c3cc(CO)ccc3F)cc(OCc3cccc4ccccc34)cc2o1 [Example 40, 5-(2-fluoro-5-(hydroxymethyl)phenyl)-2-isopropyl-7-(naphthalen-1-ylmethoxy)-4H-chromen-4-one]",1 to 10 µM
28,"CC(C)c1cc(=O)c2c(OCCCCO)cc(OCc3ccnc4ccccc34)cc2o1 [Example 30, 5-(4-hydroxybutoxy)-2-isopropyl-7-(quinolin-4-ylmethoxy)-4H-chromen-4-one]",≤ 0.1 µM
29,"CC(C)c1cc(=O)c2c(OCc3ccccc3CO)cc(OCc3cncc(C(F)(F)F)c3)cc2o1 [Example 16, 5-((2-(hydroxymethyl)benzyl)oxy)-2-isopropyl-7-((5-(trifluoromethyl)pyridin-3-yl)methoxy)-4H-chromen-4-one]",≤ 0.1 µM
